Measured values: patent publication US20240294531A1, “COVALENT HETEROCYCLES AND USES THEREOF” (Kumquat Biosciences Inc., priority 2022, published 2024)

Experiments:
BTK wildtype protein = BTK wildtype protein (Homo sapiens (Human), UniProt Q06187); assay: BTK wildtype HTRF displacement assay; type: binding; conditions: 1-hour incubation; read-out: BTK (wt) IC50
Method in brief: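 Full-length N-terminal GST-tagged BTK incubated 1 h at room temperature with compound (6 doses, four-fold dilutions from 5 μM top) plus kinase tracer 239 and anti-GST-Tb antibody. Tracer displacement read as TR-FRET 665/620 ratio, background-subtracted using no-protein control. IC50 from four-parameter fit constrained 0–100% inhibition.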

BTK C481S protein = BTK C481S protein (Homo sapiens (Human), UniProt Q06187, C481S); assay: BTK C481S HTRF displacement assay; type: binding; conditions: 1-hour incubation
Method in brief: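 N-terminal GST-tagged BTK C481S (2-659) incubated 1 hour at room temperature with compound (6 doses, four-fold from 5 μM), 50 nM kinase tracer 239 and anti-GST-Tb antibody. TR-FRET 665/620 ratio, background-subtracted; IC50 from constrained four-parameter fit. KI=IC50/(1+[Tracer]/Kd), tracer Kd 54 nM.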

Sequence of BTK C481S protein (Q06187 2-659 C481S): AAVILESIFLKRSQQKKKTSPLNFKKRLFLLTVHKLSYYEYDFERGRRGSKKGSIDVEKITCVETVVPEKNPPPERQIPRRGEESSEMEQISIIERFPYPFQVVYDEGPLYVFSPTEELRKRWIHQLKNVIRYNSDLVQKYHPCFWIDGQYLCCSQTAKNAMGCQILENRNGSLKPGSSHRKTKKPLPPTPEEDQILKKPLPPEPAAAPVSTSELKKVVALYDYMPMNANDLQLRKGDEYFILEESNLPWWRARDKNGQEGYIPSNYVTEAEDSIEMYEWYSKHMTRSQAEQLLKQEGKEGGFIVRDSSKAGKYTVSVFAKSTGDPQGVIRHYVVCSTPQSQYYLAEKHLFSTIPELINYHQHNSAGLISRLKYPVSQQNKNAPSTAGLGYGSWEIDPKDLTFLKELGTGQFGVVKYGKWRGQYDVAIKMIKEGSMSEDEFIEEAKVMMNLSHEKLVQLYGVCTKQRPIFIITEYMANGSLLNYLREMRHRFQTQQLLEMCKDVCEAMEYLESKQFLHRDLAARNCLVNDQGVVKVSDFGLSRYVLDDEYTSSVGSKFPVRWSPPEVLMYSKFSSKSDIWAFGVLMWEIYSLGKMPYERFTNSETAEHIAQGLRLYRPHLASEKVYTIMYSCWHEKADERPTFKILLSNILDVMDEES
Sequence of BTK wildtype protein (Q06187 2-659): as the sequence (Q06187 2-659 C481S) above, with S480C counted along it

Structure (SMILES) | IC50 (BTK wildtype protein) [nM] | IC50 (BTK C481S protein) [nM]
NC(=O)c1cn(C[C@@H]2CCCCN2C(=O)n2cncn2)nc1-c1ccc(Oc2ccccc2)cc1 [Compound 175, (S)-1-((1-(1H-1,2,4-triazole-1-carbonyl)piperidin-2-yl)methyl)-3-(4-phenoxyphenyl)-1H-pyrazole-4-carboxamide] | > 1000 | > 1000
CCC(CN(C)C(=O)n1cncn1)n1nc(-c2ccc(CNC(=O)c3cc(F)ccc3OC)cc2)c2c(N)ncnc21 (centres unmarked) [Compound 176, N-(2-(4-amino-3-(4-((5-fluoro-2-methoxybenzamido)methyl)phenyl)-1H-pyrazolo[3,4-d]pyrimidin-1-yl)butyl)-N-methyl-1H-1,2,4-triazole-1-carboxamide] | > 1000 | > 1000
COc1ccc(F)cc1C(=O)NCc1ccc(-c2nn(CC3CN(C)CCN3C(=O)n3cncn3)c3ncnc(N)c23)cc1 (centres unmarked) [Compound 178, N-(4-(4-amino-1-((4-methyl-1-(1H-1,2,4-triazole-1-carbonyl)piperazin-2-yl)methyl)-1H-pyrazolo[3,4-d]pyrimidin-3-yl)benzyl)-5-fluoro-2-methoxybenzamide] | > 1000 | > 1000
CCN(C(=O)n1cncn1)C1CCC(n2nc(-c3ccc(Oc4ccccc4)cc3)c3c(N)ncnc32)C1 (centres unmarked) [Compound 179, N-(3-(4-amino-3-(4-phenoxyphenyl)-1H-pyrazolo[3,4-d]pyrimidin-1-yl)cyclopentyl)-N-ethyl-1H-1,2,4-triazole-1-carboxamide] | ≤ 1000 | ≤ 1000
COc1ccc(F)cc1C(=O)NCc1ccc(-c2nn(C3CCC3N(C)C(=O)n3cncn3)c3ncnc(N)c23)cc1 (centres unmarked) [Compound 181, N-(2-(4-amino-3-(4-((5-fluoro-2-methoxybenzamido)methyl)phenyl)-1H-pyrazolo[3,4-d]pyrimidin-1-yl)cyclobutyl)-N-methyl-1H-1,2,4-triazole-1-carboxamide] | ≤ 1000 | ≤ 1000
CN(C(=O)n1cncn1)[C@@H]1CCCC[C@H](n2nc(-c3ccc(Oc4ccccc4)cc3)c(C(N)=O)c2N)C1 [Compound 182, N-((1R,3S)-3-(5-amino-4-carbamoyl-3-(4-phenoxyphenyl)-1H-pyrazol-1-yl)cycloheptyl)-N-methyl-1H-1,2,4-triazole-1-carboxamide] | ≤ 1000 | ≤ 1000
CN(C(=O)n1cncn1)C1CCC(C2CCNc3c(C(N)=O)c(-c4ccc(Oc5ccccc5)cc4)nn32)C1 (centres unmarked) [Compound 183, 7-(3-(N-methyl-1H-1,2,4-triazole-1-carboxamido)cyclopentyl)-2-(4-phenoxyphenyl)-4,5,6,7-tetrahydropyrazolo[1,5-a] pyrimidine-3-carboxamide] | ≤ 1000 | ≤ 1000
NC(=O)c1c(-c2ccc(Oc3ccccc3)cc2)nn(C[C@@H]2CCCCN2C(=O)n2cncn2)c1N [Compound 184, (S)-1-((1-(1H-1,2,4-triazole-1-carbonyl)piperidin-2-yl)methyl)-5-amino-3-(4-phenoxyphenyl)-1H-pyrazole-4-carboxamide] | ≤ 1000 | ≤ 1000
COc1ccc(F)cc1C(=O)NCc1ccc(-c2nn(C[C@H]3CCCCN3C(=O)n3cncn3)c3[nH]c(=O)[nH]c(=O)c23)cc1 [Compound 185, (R)-N-(4-(1-((1-(1H-1,2,4-triazole-1-carbonyl)piperidin-2-yl)methyl)-4,6-dioxo-4,5,6,7-tetrahydro-1H-pyrazolo[3,4-d]pyrimidin-3-yl)benzyl)-5-fluoro-2-methoxybenzamide] | > 1000 | ≤ 1000
COc1ccc(F)cc1C(=O)NCc1ccc(-c2nn(CC(N(C)C(=O)n3cncn3)C(F)(F)F)c(N)c2C(N)=O)cc1 (centres unmarked) [Compound 186, N-(3-(5-amino-4-carbamoyl-3-(4-((5-fluoro-2-methoxybenzamido)methyl)phenyl)-1H-pyrazol-1-yl)-1,1,1-trifluoropropan-2-yl)-N-methyl-1H-1,2,4-triazole-1-carboxamide] | ≤ 1000 | ≤ 1000
COc1ccc(F)cc1C(=O)NCc1ccc(-c2nn(-c3cccc(N(C)C(=O)n4cncn4)c3)c3ncnc(N)c23)cc1 [Compound 187, N-(3-(4-amino-3-(4-((5-fluoro-2-methoxybenzamido)methyl)phenyl)-1H-pyrazolo[3,4-d]pyrimidin-1-yl)phenyl)-N-methyl-1H-1,2,4-triazole-1-carboxamide] | ≤ 1000 | ≤ 1000
COc1ccc(F)cc1C(=O)NCc1ccc(-c2nn(C3(CN(C)C(=O)n4cncn4)CC3)c3ncnc(N)c23)cc1 [Compound 188, N-((1-(4-amino-3-(4-((5-fluoro-2-methoxybenzamido)methyl)phenyl)-1H-pyrazolo[3,4-d]pyrimidin-1-yl)cyclopropyl)methyl)-N-methyl-1H-1,2,4-triazole-1-carboxamide] | ≤ 1000 | > 1000
COc1ccc(F)cc1C(=O)NCc1ccc(-c2nn(-c3cccc(CN(C)C(=O)n4cncn4)c3)c3ncnc(N)c23)cc1 [Compound 191, N-(3-(4-amino-3-(4-((5-fluoro-2-methoxybenzamido)methyl)phenyl)-1H-pyrazolo[3,4-d]pyrimidin-1-yl)benzyl)-N-methyl-1H-1,2,4-triazole-1-carboxamide] | ≤ 1000 | ≤ 1000
CN(C(=O)n1cncn1)C1CCCN(c2ncnc3[nH]ccc23)C1 (centres unmarked) [Compound 192, N-(1-(7H-pyrrolo[2,3-d]pyrimidin-4-yl)piperidin-3-yl)-N-methyl-1H-1,2,4-triazole-1-carboxamide] | > 1000 | > 1000
COc1ccc(F)cc1C(=O)NCc1ccc(-c2nn(C[C@H]3CCCC[C@@H]3CN(C)C(=O)n3cncn3)c3ncnc(N)c23)cc1 [Compound 193, N-(((1S,2S)-2-((4-amino-3-(4-((5-fluoro-2-methoxybenzamido)methyl)phenyl)-1H-pyrazolo [3,4-d]pyrimidin-1-yl)methyl)cyclohexyl)methyl)-N-methyl-1H-1,2,4-triazole-1-carboxamide] | ≤ 1000 | ≤ 1000
COc1ccc(F)cc1C(=O)NCc1ccc(-c2nn(C(CCN(C)C(=O)n3cncn3)Cc3ccccc3)c3ncnc(N)c23)cc1 (centres unmarked) [Compound 195, N-(3-(4-amino-3-(4-((5-fluoro-2-methoxybenzamido)methyl)phenyl)-1H-pyrazolo[3,4-d]pyrimidin-1-yl)-4-phenylbutyl)-N-methyl-1H-1,2,4-triazole-1-carboxamide] | > 1000 | > 1000
CN(C(=O)n1cncn1)C1CCC(C2CCNc3c(C(N)=O)c(-c4ccc(Oc5ccccc5)cc4)nn32)CC1 (centres unmarked) [Compound 196, 7-(4-(N-methyl-1H-1,2,4-triazole-1-carboxamido)cyclohexyl)-2-(4-phenoxyphenyl)-4,5,6,7-tetrahydropyrazolo[1,5-a] pyrimidine-3-carboxamide] | ≤ 1000 | ≤ 1000
NC(=O)c1c(-c2ccc(Oc3ccccc3)cc2)nn(C2CCCC3C2CCN3C(=O)n2cncn2)c1N (centres unmarked) [Compound 197, 1-(1-(1H-1,2,4-triazole-1-carbonyl)octahydro-1H-indol-4-yl)-5-amino-3-(4-phenoxy-phenyl)-1H-pyrazole-4-carboxamide] | ≤ 1000 | ≤ 1000
COc1ccc(F)cc1C(=O)NCc1ccc(-c2nn(C3CCCCC3CN(C)C(=O)n3cncn3)c3ncnc(N)c23)cc1 (centres unmarked) [Compound 198, N-((2-(4-amino-3-(4-((5-fluoro-2-methoxybenzamido)methyl)phenyl)-1H-pyrazolo[3,4-d]pyrimidin-1-yl)cyclohexyl)methyl)-N-methyl-1H-1,2,4-triazole-1-carboxamide] | ≤ 1000 | ≤ 1000
